# In patent US20220204577A1, “Synthetic Peptides With Affinity for the Interleukin-10 Receptor, Pharmaceutical Composition and Use Thereof as Immunomodulators for Treating Autoimmune, Inflammatory or Allergic Diseases” (Universidade Federal de Uberlândia, priority 2019, published 2022):
# Positions of bridges follow the written chain, without caps; N, C: chain ends. No end group written: not given here.
# Experiments:
# [1] = tested on: Dendritic cells from mice bone marrow; assay: Co-stimulatory molecules on bone marrow dendritic cells; format: cell-based; settings: CD11c+ dendritic cells, 24 hours
# Description: Dendritic cells from mice bone marrow were isolated to analyze the effect of synthesized peptides Pep 1, Pep 2, Pep 3, and Pep 4 at two concentrations, 1 μM, and 10 μM, on reducing cell activation. […] In the assays, CD11c+CD86 cells (FIG. 8A) and CD11c+CD40+ cells (FIG. 8B) were used after 24 hours of treatment. LPS (100 ng/mL) was used as a positive control. * P<0.05; ** P<0.005.
# NFκB = assay: NFkB expression in Jurkart-Dual reporter cells, TNF-α pre-treatment then peptides; format: cell-based; settings: for NFκB signaling: TNF-α then peptide
# Description: Then another assay was performed in which the cells were pretreated with TNF-α and the peptides were added later. […] In the assays shown in FIGS. 4 A, B, and C the analysis of NFkB expression was performed in Jurkart-Dual reporter cells. Cells were treated with TNF-α (200 ng/ml) for 1 hour and the peptides were added. Luciferase was measured after 12 hours of treatment (FIG. 4A), 24 hours of treatment (FIG. 4B), and 48 hours of treatment (FIG. 4C). TNF-α (200 ng/mL) was used as a positive control and rIL-10 (Recombinant Interleukin-10) (0.4 ng/mL) as a negative control. * P<0.05; ** P<0.005; *** P<0.0005.
substance,measurement,setting,value
"Pep 1: synthetic peptide with affinity to the Interleukin-10 receptor, SEQ ID No 01, with disulfide bridges (HACSAVIKSSCGGGS; disulfide 3-11 (inferred))",expression of CD86+,[1]; 1 μM,decreased the expression of CD86+
same,expression of CD86+,[1]; 10 μM,decreased the expression of CD86+
same,NFκB signaling,"NFκB; 0.0001 μM, 24 hours",less activation of the analyzed signaling pathway
same,NFκB signaling,"NFκB; 0.001 μM, 12 hours",decreased the activation of the analyzed pathway
same,NFκB signaling,"NFκB; 0.001 μM, 24 hours",less activation of the analyzed signaling pathway
same,NFκB signaling,"NFκB; 0.001 μM, 48 hours",reducing NFκB signaling
same,NFκB signaling,"NFκB; 0.005 μM, 24 hours",less activation of the analyzed signaling pathway
same,NFκB signaling,"NFκB; 0.05 μM, 12 hours",decreased the activation of the analyzed pathway
same,NFκB signaling,"NFκB; 0.1 μM, 12 hours",decreased the activation of the analyzed pathway
same,NFκB signaling,"NFκB; 0.1 μM, 24 hours",less activation of the analyzed signaling pathway
same,NFκB signaling,"NFκB; 0.5 μM, 12 hours",decreased the activation of the analyzed pathway
same,NFκB signaling,"NFκB; 1 μM, 12 hours",decreased the activation of the analyzed pathway
same,NFκB signaling,"NFκB; 1 μM, 24 hours",less activation of the analyzed signaling pathway
same,NFκB signaling,"NFκB; 5 μM, 12 hours",decreased the activation of the analyzed pathway
same,NFκB signaling,"NFκB; 10 μM, 12 hours",decreased the activation of the analyzed pathway
same,NFκB signaling,"NFκB; 10 μM, 24 hours",less activation of the analyzed signaling pathway
same,NFκB signaling,"NFκB; 100 μM, 24 hours",less activation of the analyzed signaling pathway
same,NFκB activation,"NFκB; cells pretreated with TNF-α, all concentrations tested, 12 and 24 hours",decreased NFκB activation
